Measurements as given in ChEMBL document CHEMBL4190389, “Synthesis and activity of di- or trisubstituted N-(phenoxyalkyl)- or N-{2-[2-(phenoxy)ethoxy]ethyl}piperazine derivatives on the central nervous system” (Bioorg Med Chem Lett, 2018).

Key:
[1] = molecular target: T1, 5-hydroxytryptamine receptor 1A (Homo sapiens, UniProt P08908); test: Binding affinity to 5-HT1A receptor (unknown origin)
T1 sequence (P08908 whole entry): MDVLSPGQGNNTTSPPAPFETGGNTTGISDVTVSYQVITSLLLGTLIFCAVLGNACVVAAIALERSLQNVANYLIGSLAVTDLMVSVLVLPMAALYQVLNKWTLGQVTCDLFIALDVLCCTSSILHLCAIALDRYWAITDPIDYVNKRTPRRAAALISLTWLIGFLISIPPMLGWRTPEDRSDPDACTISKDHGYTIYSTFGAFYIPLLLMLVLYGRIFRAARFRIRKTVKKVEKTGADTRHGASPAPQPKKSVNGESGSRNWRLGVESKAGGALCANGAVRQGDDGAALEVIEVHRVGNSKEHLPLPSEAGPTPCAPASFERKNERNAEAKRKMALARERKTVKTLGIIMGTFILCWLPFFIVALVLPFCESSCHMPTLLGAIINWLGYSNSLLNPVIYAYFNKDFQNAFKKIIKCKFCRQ

[2] = molecular target: T2, Adrenergic receptor alpha-1 (Rattus norvegicus, UniProt P15823+P23944+P43140); test: Displacement of [3H]prazosin from rat cerebral cortex adrenergic receptor alpha1 by liquid scintillation counting method
T2 sequence (P15823 whole entry): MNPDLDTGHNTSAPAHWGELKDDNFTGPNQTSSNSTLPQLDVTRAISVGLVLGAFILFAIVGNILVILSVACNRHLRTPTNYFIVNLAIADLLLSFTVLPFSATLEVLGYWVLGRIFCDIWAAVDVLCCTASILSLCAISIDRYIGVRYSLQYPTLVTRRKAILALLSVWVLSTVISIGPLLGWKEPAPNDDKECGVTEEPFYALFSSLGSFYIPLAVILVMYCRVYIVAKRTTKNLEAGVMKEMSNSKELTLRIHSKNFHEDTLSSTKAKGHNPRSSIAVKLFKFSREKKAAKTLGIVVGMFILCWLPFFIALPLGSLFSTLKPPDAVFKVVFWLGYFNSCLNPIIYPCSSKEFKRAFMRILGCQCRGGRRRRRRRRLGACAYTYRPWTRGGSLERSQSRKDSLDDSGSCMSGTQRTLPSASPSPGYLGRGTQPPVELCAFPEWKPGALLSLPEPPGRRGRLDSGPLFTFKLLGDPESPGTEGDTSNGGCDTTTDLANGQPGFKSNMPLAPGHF
T2 sequence (P23944 whole entry): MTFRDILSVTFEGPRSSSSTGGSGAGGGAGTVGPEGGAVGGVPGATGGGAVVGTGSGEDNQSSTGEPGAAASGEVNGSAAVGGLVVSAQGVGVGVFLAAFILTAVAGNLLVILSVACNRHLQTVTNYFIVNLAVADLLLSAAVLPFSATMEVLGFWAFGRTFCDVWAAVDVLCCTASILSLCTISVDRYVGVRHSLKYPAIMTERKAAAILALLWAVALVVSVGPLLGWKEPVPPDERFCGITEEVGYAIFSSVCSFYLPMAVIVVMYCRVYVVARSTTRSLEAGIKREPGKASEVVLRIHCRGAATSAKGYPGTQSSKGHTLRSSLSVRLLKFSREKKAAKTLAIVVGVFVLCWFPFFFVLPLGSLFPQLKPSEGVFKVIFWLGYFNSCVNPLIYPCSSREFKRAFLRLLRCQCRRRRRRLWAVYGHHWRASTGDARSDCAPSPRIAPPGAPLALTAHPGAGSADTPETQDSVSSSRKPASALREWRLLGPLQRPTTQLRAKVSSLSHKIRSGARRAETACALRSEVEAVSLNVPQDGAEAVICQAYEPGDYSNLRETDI
T2 sequence (P43140 whole entry): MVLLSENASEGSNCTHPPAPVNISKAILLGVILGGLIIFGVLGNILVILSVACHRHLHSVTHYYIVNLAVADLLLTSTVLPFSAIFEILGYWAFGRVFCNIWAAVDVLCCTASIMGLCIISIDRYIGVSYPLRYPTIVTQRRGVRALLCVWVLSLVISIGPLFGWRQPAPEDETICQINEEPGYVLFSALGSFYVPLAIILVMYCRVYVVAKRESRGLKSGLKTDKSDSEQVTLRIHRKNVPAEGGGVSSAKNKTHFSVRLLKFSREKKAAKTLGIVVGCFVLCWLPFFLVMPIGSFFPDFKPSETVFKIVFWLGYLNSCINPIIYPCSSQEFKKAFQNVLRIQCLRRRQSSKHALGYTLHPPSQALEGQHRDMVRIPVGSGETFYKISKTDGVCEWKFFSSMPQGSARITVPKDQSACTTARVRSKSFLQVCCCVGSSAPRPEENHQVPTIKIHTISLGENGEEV

[3] = molecular target: 5-hydroxytryptamine receptor 2A (Homo sapiens, UniProt P28223); test: Agonist activity at human 5-HT2A receptor expressed in CHO-K1 cells co-expressing Galpha16 assessed as increase in calcium mobilization measured for 30 secs by aequorin-derived luminescence assay; assay type: functional, cell-based
Sequence of 5-hydroxytryptamine receptor 2A (P28223 whole entry): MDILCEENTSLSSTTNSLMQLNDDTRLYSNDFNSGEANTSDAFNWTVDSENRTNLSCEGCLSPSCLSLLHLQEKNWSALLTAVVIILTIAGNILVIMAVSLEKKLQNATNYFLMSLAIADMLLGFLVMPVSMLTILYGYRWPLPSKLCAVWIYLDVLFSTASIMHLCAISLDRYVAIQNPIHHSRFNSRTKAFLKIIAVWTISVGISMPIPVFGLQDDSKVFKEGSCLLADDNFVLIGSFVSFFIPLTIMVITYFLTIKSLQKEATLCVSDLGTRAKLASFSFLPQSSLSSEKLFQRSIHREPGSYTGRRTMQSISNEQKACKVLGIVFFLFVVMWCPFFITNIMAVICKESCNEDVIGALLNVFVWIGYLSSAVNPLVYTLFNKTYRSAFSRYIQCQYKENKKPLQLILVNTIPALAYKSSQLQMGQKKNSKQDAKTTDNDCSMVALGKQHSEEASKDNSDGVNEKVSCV

| Structure (SMILES) | Ki [1] | Ki [2] | EC50 [3] |
| --- | --- | --- | --- |
| COc1ccccc1N1CCN(CCCNc2cc(=O)n(C)c(=O)n2C)CC1 | 213 nM | 127.9 nM | – |
| CC(N)Cc1c[nH]c2ccc(O)cc12 (stereo not drawn) | – | – | 2 nM |
